Drawing on PubChem BioAssay (NCI), this text covers TGI and GI50 for 16 compounds.

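Exposure lasted 48 hours, with cells grown in 96-well plates and compounds tested at five concentrations. GI50 = concentration required for 50% inhibition of growth. TGI denotes the concentration required for complete inhibition of growth.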 Where only a bound is given, the exact number is not on record here.

Assay in all cases: DTP human tumour cell line panel, 48 h
Test [1] deals with NCI-H23 lung.
Test [2] deals with RPMI-8226 leukemia.
The test system of test [3] is SF-539 CNS.
Test [4] relates to SK-OV-3 ovarian.
For test [5], the system named is SNB-19 CNS.
For test [6], the system named is SR leukemia.
Test [7] deals with CCRF-CEM leukemia.
Test [8] concerns LOX IMVI melanoma.
The test system of test [9] is MOLT-4 leukemia.
The test system of test [10] is PC-3 prostate.

By TGI is commonly meant the concentration at which net growth stops. As for `Cc1ccc(C2=C(c3ccccc3)C(O)(c3ccccc3)C(c3ccccc3)=C2c2ccc(C)cc2)cc1`, the TGI in test [1], in test [2], in test [3], in test [4], in test [5] and in test [6] was above 100 µM throughout.
`CC(C)C(N=C1CC2CCC1(C(=O)Nc1ccccc1O)C2(C)C)c1ccccc1` (centres undefined): the TGI in test [7], in [8], in [9], in test [1], in test [2] and in test [3] was above 10 µM each time. The concentration for total growth inhibition (TGI) in test [4], in test [5] and in test [6] was above 10 µM each time.
On to `CN(C)CC(O)CNC(=O)Nc1ccccc1` (centres undefined), for which the TGI in test [7], in test [8], in test [1], in test [10], in test [2] and in test [3] was above 100 µM each time. For the same compound, the TGI in [4] and in [5] was above 100 µM each time.
On to `O/N=C1/C(=C/c2ccc(Br)cc2)CCCC1C(NO)c1ccc(Br)cc1` (centres undefined), for which the TGI in test [7] was found to be 51.2 µM; in test [8] it was 35.5 µM; in test [9], 31.7 µM; in [2], 48.4 µM; in test [3], 44.8 µM; in test [4], 44.8 µM. This compound also had a concentration for total growth inhibition (TGI) in test [5] of 32 µM.
In the case of `COc1ccccc1-c1nc[nH]c1-c1ccccc1OC`, the TGI in [8] was 41.7 µM; in test [9] it was above 100 µM; in test [1], above 100 µM; in [10] it was above 100 µM; in test [2] it was above 100 µM; in test [4] it was above 100 µM. The compound also had a TGI in test [5] above 100 µM.
As for `CC(=O)Nc1ccc(S(=O)(=O)Nc2cnc3ccccc3n2)cc1`, the TGI in test [7], in [8], in test [9], in [1], in test [2] and in test [3] was above 100 µM in each case. Further, the concentration for total growth inhibition (TGI) in [4], in test [5] and in [6] was above 100 µM each time.
For the compound `c1ccc(C2SCc3nc4ccccc4n32)cc1` (centres undefined), the TGI in test [7] is above 100 µM; in test [8], above 100 µM; in test [9] it was above 100 µM; in test [1], above 100 µM; in test [2] it was 67.3 µM; in [3] it was above 100 µM. For the same compound, the total growth inhibition concentration (TGI) in test [4], in test [5] and in test [6] was above 100 µM throughout.
On to `Cc1ccc2c(=O)cc(-c3ccccc3)[nH]c2n1`, for which the TGI in [8] was above 100 µM; in test [9] it was above 28.3 µM; in [1], 16.8 µM; in [10] it was 26.7 µM; in test [2] it was above 15.1 µM; in [3], 2.79 µM. The figures for the total growth inhibition concentration (TGI) in [4] and in [5] were above 21 µM and above 100 µM, respectively.
As for `C=c1c2ccccc2oc2nc3[nH]c(N)c(C#N)c(N)c3c(=N)c12`, the TGI in [7] was above 100 µM; in test [8], 68.4 µM; in test [9] it was 89.2 µM; in test [1] it was 62.7 µM; in [10], 66.9 µM; in test [2], above 100 µM. Further, the TGI in test [3] is 71.5 µM; in test [4] it was above 100 µM; in [5] it was above 100 µM.
For the compound `COC(=O)C1=C(C(=O)OC)SC2(S1)C(C(=O)OC)=C(C(=O)OC)Sc1c2ssc1=O`, the concentration for total growth inhibition (TGI) in [7] stood at 0.307 µM; in test [8], 0.817 µM; in [9], 0.843 µM; in [1], 4.12 µM; in [10] it was 3.75 µM; in [2] it was 5.68 µM. For the same compound, the TGI was found to be 3.35 µM in test [3], 24.8 µM in [4] and 34.2 µM in test [5].
As for `C#CCn1c(=O)c2cc(OC)c(OC)cc2n(CC#C)c1=O`, the TGI in test [7], in test [8], in test [9], in test [1], in test [10] and in test [2] was above 10 µM throughout. Besides, the TGI in [3], in test [4] and in [5] was above 10 µM each time.
Regarding `N#Cc1cc([N+](=O)[O-])ccc1NC(=O)C(=O)Nn1c(=S)[nH]c2ccccc2c1=O`, the TGI in test [7], in test [8], in [1], in test [2], in [3] and in test [4] was above 100 µM each time. The TGI in [5] and in test [6] was above 100 µM each time.
For `CC(=O)OC1CC[C@@]2(C)C(=CC[C@@H]3[C@@H]2CC[C@]2(C)Nc4c(cnn4-c4ccc(F)cc4)C[C@@H]32)C1` (some centres undefined), the TGI was above 100 µM in [7]; above 58.6 µM in test [8]; above 100 µM in test [1]; above 100 µM in test [10]; 28.3 µM in test [2]; 17.2 µM in [3]. For the same compound, the TGI in test [4] and in test [5] was above 100 µM each time.
With `COc1cccc2c1CCc1sc(CN3CCN(C)CC3)nc1-2`, the TGI in [7] is 53.5 µM; in test [9] it was 63.9 µM; in test [1], above 100 µM; in [10], above 100 µM; in test [2] it was above 100 µM; in test [4], above 100 µM. Besides, in test [5], the TGI is above 100 µM.
As to `COc1c(C(=O)CC2c3c(cc4oc(C)cc(=O)c4c3OC)OC(=N)C2c2nc3ccccc3[nH]2)c(O)c(OC)c2occc12` (centres undefined), the TGI in [7], in [8], in [9], in test [1], in [10] and in test [2] was above 100 µM throughout. Further, the TGI in test [4] and in test [5] was above 100 µM throughout.
By GI50 is commonly meant the concentration that inhibits growth by half. With `COc1ccc(CNCCN2C(=O)c3ccc4c5c(ccc(c35)C2=O)C(=O)N(CCNCc2ccc(OC)c(OC)c2OC)C4=O)c(OC)c1OC`, the GI50 is 0.273 µM in test [7], 0.151 µM in [9], 1.67 µM in test [4] and 0.429 µM in test [5]. For the same compound, the TGI in [7] came out at 50 µM; in [9] it was 0.613 µM; in [4], 50 µM; in test [5], 4.13 µM.
